{"source": "patent US20140315972A1", "about": "“RS)-2-(2-oxo-4-phenylpyrrolidin-1-yl)acetamide compound having modulatory activity with a commensurate effect, pharmaceutical substance (variants) and its application, composition (variants) thereof” (priority 2011, published 2014)", "key": {"cats": {"system": "cats", "assay_type": "in vivo", "settings": "anesthetized cats; single i.v.; 100 mg/kg (title)"}, "[1]": {"test": "Daily diuresis in non-obese humans", "assay_type": "in vivo, human", "settings": "for Daily urine volume (ml/day, %): adult humans, background (not treated) = 100", "method": "The effect of Phenotropil (25, 50 and 100 mg in the morning) on diuresis was investigated in non-obese groups (males and females 23-47 years) for 10 days. The daily volume of urine when treated with placebo and Phenotropil was recorded."}, "cAMP": {"system": "cAMP", "test": "cAMP level in functional dysmenorrhea patients", "assay_type": "in vivo, human", "settings": "for cAMP level / cAMP level, change in % (vs background dysmenorrhea): human plasma, primary dysmenorrhoea, first phase of the cycle", "method": "Investigation of the effect of Phenotropil in amenorrhea and functional dysmenorrhea was conducted on groups of patients aged 14-27 years. The first group (20-27 years) diagnosed with schizophrenia, was on the maintenance neuroleptic therapy and had menstrual cycle irregularities in the form of amenorrhea (for more than 6 months). Of those, 4 had amenorrhea of not established nature, observed also prior to the pronounced primary manifestation of mental disorder, 6 patients had amenorrhea that developed during treatment with neuroleptics. Phenotropil, tablets was administered in doses of 100 mg and 200 mg per day as part of a complex antipsychotic therapy as a corrector of psychogenic side effects of neuroleptics. The dose was selected based on the individual and clinical features of the patients. The duration of Phenotropil therapy was 3 months. Two groups (14-18 years) with functional dysmenorrhea and manifestations of pronounced spastic symptoms were studied. Duration of the Phenotropil monotherapy (50 and 100 mg per day) was one month followed by administration of the drug at one-week courses as a preventive agent. Patients with functional dysmenorrhea were investigated for cAMP level in comparison with the norm control group. The cAMP level was determined using the standard kits, by the method based on the competition with the labeled cyclic 3′,5-adenosine monophosphate in the level of binding with […]."}, "mice [2]": {"system": "mice", "test": "Average life duration (ALD) of mice", "assay_type": "in vivo"}, "mice [3]": {"system": "mice", "test": "Tremor caused by arecoline", "assay_type": "in vivo", "settings": "for Duration of tremor: mice, arecoline 25 mg/kg", "excerpt": "Studies have been conducted on white outbred male mice (18-24 g), in comparison with the olanzapine (Zyprexa) with intraperitoneal injection."}, "mice [4]": {"system": "mice", "assay_type": "in vivo", "settings": "for Mortality: mice", "method": "Chemical convulsive agents (bicuculline, corazol, thiosemicarbazide, and picrotoxin) and the maximum electroconvulsive shock (ECS) model in the experiment the different types of seizures with their various implementation mechanisms of pathological conditions. The anticonvulsant activity of Phenotropil after a single dose for all the investigated models manifests in a pronounced positive effect on prevention of mortality in the studied doses of 100, 300, 400, 600 mg/kg. In case of bicuculline-induced seizures, mortality in the control group was 70.0%. Phenotropil (100, 300, 600 mg/kg) was effective in 100% of cases. The metrazole-induced mortality in the control was 60.0% and the positive effect of Phenotropil for mortality vs control was 45-35-0%, depending on the dose, respectively. The thiosemicarbazide-induced mortality was 90.0% in the control group, while when treated with Phenotropil (100, 300, 600 mg/kg), respectively: 60-0-0%. […] In case of MES, mortality in the control group was 100.0%, while in the Phenotropil groups (100, 300, 400 mg/kg) it was 20-0-0%, respectively. […] The anticonvulsant effect of Phenotropil prevents the development of seizures and affects the outcome of convulsive states, preventing mortality in all applied models of seizures in animals. The mechanisms of action of anticonvulsant activity of Phenotropil are probably also commensurate, various and depend on the initial state."}, "[5]": {"test": "Slendering effect, body weight and rating scales in obese humans", "assay_type": "in vivo, human", "settings": "for Body weight (%): adult humans, change vs background (not treated) = 100; for decrease of body weight: obese women", "method": "A study of the slendering effect of Phenotropil (100, 200 and 300 mg once a day for 30 days) in women (37-65 years) with alimentary constitutional obesity and non-obese groups (males and females 23-47 years) are presented in Table 26. The control groups received placebo tablets. The nutrition regimen and ration were not regulated; no recommendations on calories or regimen were given. The purpose of the study was to identify the effect of the drug without the influence of the diet. To assess the condition before and after treatment, in addition to the measurement of body weight, the dynamics of the general clinical condition was studied: asthenia scale MFI-20, Hospital Anxiety and Depression Scale, the quality of life scale SF-36. The questionnaires were completed twice: one day before treatment and the next day after the end of treatment."}, "mice [6]": {"system": "mice", "test": "Conflict situation (tranquilizing effect)", "assay_type": "in vivo", "settings": "300 mg/kg", "method": "The tranquilizing effect of Phenotropil (300 mg/kg) was studied by the method of conflict situation and conflict of two reflexes (Vogel, 1971; Sanger et al., 1991; File, 1995; Molodavkin, Voronina, 1995), associated in this case with the desire to satisfy the motivation (drinking) and application of punishment (electric shock, received after each attempt to satisfy the motivation). In the created conflict situation, the animal is experiencing a strong negative stress. Tranquilizers reduce the level of anxiety and psychoemotional stress."}}, "note": "Like-named read-outs stand apart in the source and are kept apart here. Marks after values point to notes of the source that are not given here."}
{"smiles": "NC(=O)CN1CC(c2ccccc2)CC1=O", "note": "(racemic) [Compound 1, (RS)-2-(2-oxo-4-phenylpyrrolidine-1-yl)acetamide]", "values": [{"measurement": "CCA blood flow (1-2 min) vs background", "setting": "cats", "value": "+26.0%"}, {"measurement": "SBP (1-2 min) vs background", "setting": "cats", "value": "−24.0", "unit": "%"}, {"measurement": "SBP (at 4 min) vs background", "setting": "cats", "value": "+14%"}, {"measurement": "VPR (at 5 min) vs background", "setting": "cats", "value": "−46.0", "unit": "%"}, {"measurement": "increase of daily urine output, average index", "setting": "[1]; 25, 50, 100 mg in the morning, first three days", "value": "30-37%"}, {"measurement": "Daily urine volume (ml/day, %)", "setting": "[1]; 25 mg/day", "value": "130 * %"}, {"measurement": "Daily urine volume (ml/day, %)", "setting": "[1]; 50 mg/day", "value": "137 * %"}, {"measurement": "Daily urine volume (ml/day, %)", "setting": "[1]; 100 mg/day", "value": "137 * %"}, {"measurement": "fluctuations in urine output", "setting": "[1]; next 7 days", "value": "5-10%"}, {"measurement": "effect of course use on serum cAMP", "setting": "cAMP; functional dysmenorrhoea, monotherapy 50 and 100 mg per day, 30 days", "value": "restored the functional norm of cAMP indicators"}, {"measurement": "cAMP level", "setting": "cAMP; dose 50 mg", "value": "14.35 ± 0.87", "unit": "nmol/L"}, {"measurement": "cAMP level, change in % (vs background dysmenorrhea)", "setting": "cAMP; dose 50 mg", "value": "−32", "unit": "%"}, {"measurement": "cAMP level", "setting": "cAMP; dose 100 mg", "value": "12.77 ± 1.24", "unit": "nmol/L"}, {"measurement": "cAMP level, change in % (vs background dysmenorrhea)", "setting": "cAMP; dose 100 mg", "value": "−39", "unit": "%"}, {"measurement": "ALD increase vs placebo-treated control", "setting": "mice [2]; 50 mg/kg", "value": 15.3, "unit": "%"}, {"measurement": "ALD increase vs placebo-treated control", "setting": "mice [2]; 100 mg/kg", "value": 29.3, "unit": "%"}, {"measurement": "ALD increase vs placebo-treated control", "setting": "mice [2]; 200 mg/kg", "value": 12.5, "unit": "%"}, {"measurement": "ALD increase vs placebo-treated control", "setting": "mice [2]; 300 mg/kg", "value": 19.6, "unit": "%"}, {"measurement": "increase in life duration", "setting": "mice [2]; doses below 50.0 mg/kg", "value": "8.0-10.0%"}, {"measurement": "reduction of duration of tremor", "setting": "mice [3]; 200 mg/kg", "value": 63, "unit": "%"}, {"measurement": "reduction of duration of tremor", "setting": "mice [3]; 300 mg/kg", "value": 50, "unit": "%"}, {"measurement": "Duration of tremor", "setting": "mice [3]; 200 mg/kg", "value": "153 ± 27", "unit": "s"}, {"measurement": "Duration of tremor", "setting": "mice [3]; 300 mg/kg", "value": "208 ± 36", "unit": "s"}, {"measurement": "effective against mortality, % of cases", "setting": "mice [4]; bicuculline-induced seizures, 100, 300, 600 mg/kg", "value": 100, "unit": "%"}, {"measurement": "Mortality", "setting": "mice [4]; Bicuculline 3.0 mg/kg + 100.0 mg/kg", "value": "0* %"}, {"measurement": "Mortality", "setting": "mice [4]; Bicuculline 3.0 mg/kg + 300.0 mg/kg", "value": "0* %"}, {"measurement": "Mortality", "setting": "mice [4]; Corazol 110.0 mg/kg + 100.0 mg/kg, listed as Phenotropil", "value": 45, "unit": "%"}, {"measurement": "Mortality", "setting": "mice [4]; Corazol 110.0 mg/kg + 300.0 mg/kg, listed as Phenotropil", "value": 35, "unit": "%"}, {"measurement": "Mortality", "setting": "mice [4]; Corazol 110.0 mg/kg + 600.0 mg/kg, listed as Phenotropil", "value": 0, "unit": "%"}, {"measurement": "Mortality", "setting": "mice [4]; MES + 100.0 mg/kg, listed as Phenotropil, 100 mg/kg", "value": 20, "unit": "%"}, {"measurement": "Mortality", "setting": "mice [4]; MES + 300.0 mg/kg, listed as Phenotropil, 300 mg/kg", "value": 0, "unit": "%"}, {"measurement": "Mortality", "setting": "mice [4]; MES + 400.0 mg/kg, listed as Phenotropil, 400 mg/kg", "value": 0, "unit": "%"}, {"measurement": "Mortality", "setting": "mice [4]; Thiosemicarbazide 18.0 mg/kg + 100.0 mg/kg, listed as Phenotropil", "value": 60, "unit": "%"}, {"measurement": "Mortality", "setting": "mice [4]; Thiosemicarbazide 18.0 mg/kg + 300.0 mg/kg, listed as Phenotropil", "value": 0, "unit": "%"}, {"measurement": "Mortality", "setting": "mice [4]; Thiosemicarbazide 18.0 mg/kg + 600.0 mg/kg, listed as Phenotropil", "value": 0, "unit": "%"}, {"measurement": "Body weight (%)", "setting": "[5]; 100 mg/day", "value": "−12.0 * %"}, {"measurement": "Body weight (%)", "setting": "[5]; 200 mg/day", "value": "−15.0 * %"}, {"measurement": "Body weight (%)", "setting": "[5]; 300 mg/day", "value": "−17.8 * %"}, {"measurement": "positive effect on cramps when urinating, patients", "setting": "[5]; comorbidities", "value": "5 of 5"}, {"measurement": "positive effect on lost ability to sense and discriminate odors, patients", "setting": "[5]; comorbidities", "value": "11 of 18"}, {"measurement": "positive effect on prostatitis, patients", "setting": "[5]; comorbidities", "value": "3 of 3"}, {"measurement": "positive trend in chronic sinusitis, patients", "setting": "[5]; comorbidities", "value": "8 of 8"}, {"measurement": "decrease of body weight", "setting": "[5]; 100 mg once a day 30 days", "value": 12, "unit": "%"}, {"measurement": "decrease of body weight", "setting": "[5]; 200 mg once a day 30 days", "value": 15, "unit": "%"}, {"measurement": "decrease of body weight", "setting": "[5]; 300 mg once a day 30 days", "value": 18, "unit": "%"}, {"measurement": "decrease of anxiety and depression, on average", "setting": "[5]; rating scales after 30 days", "value": "more than 60%"}, {"measurement": "decrease of indicators of fatigue", "setting": "[5]; rating scales after 30 days", "value": 92, "unit": "%"}, {"measurement": "reduction of amount of intakes for three minutes", "setting": "mice [6]", "value": 74.4, "unit": "%"}, {"measurement": "reduction of anxiety and emotional stress in the conflict situation vs control", "setting": "mice [6]", "value": 291.0, "unit": "%"}, {"measurement": "Number of water intakes for 3 min", "setting": "mice [6]; mice", "value": "7.3 ± 3.9"}, {"measurement": "The time between the first and second intake of water", "setting": "mice [6]; mice", "value": "31.1 ± 3.4", "unit": "s"}]}
